These are literature values, as cited in article PMC4108727 (Angewandte Chemie (International ed. in English), 2013).

SMILES strings stand for the structures.

This series deals with MTH1 (Homo sapiens, UniProt P36639). Particulars: substrate of MTH1; cited from earlier work.

`Nc1ncnc2c1[nH]c(=O)n2[C@H]1C[C@H](O)[C@@H](COP(=O)(O)OP(=O)(O)OP(=O)(O)O)O1` [8-oxo-dATP]: the Km (commonly the concentration of substrate that gives half-maximal velocity) is 13.9 µM.
Take `Nc1nc2c([nH]c(=O)n2[C@H]2C[C@H](O)[C@@H](COP(=O)(O)OP(=O)(O)OP(=O)(O)O)O2)c(=O)[nH]1` [8-oxo-dGTP]: the Michaelis constant (Km) is 15.2 µM.
